We go through 60 compounds from ChEMBL document CHEMBL1129973, “HIV-1 integrase pharmacophore: discovery of inhibitors through three-dimensional database searching” (J Med Chem, 1997).

Assay [1] has as its target T1, Human immunodeficiency virus type 1 integrase (Human immunodeficiency virus 1, UniProt Q7ZJM1). Kind of assay: Inhibitory concentration against HIV-1 integrase by strand transfer method.
In assay [2] the target is T1, Human immunodeficiency virus type 1 integrase. As to the kind of experiment: Inhibitory concentration to inhibit HIV-1 integrase by 3' -processing method.
Assay [3] has the same target. Kind of assay: Inhibitory concentration required to inhibit HIV-1 integrase by strand transfer method.
For assay [4] the target is unchanged. As to the kind of experiment: Inhibitory concentration to inhibit HIV-1 integrase by 3' -processing.

T1 sequence (Q7ZJM1 whole entry): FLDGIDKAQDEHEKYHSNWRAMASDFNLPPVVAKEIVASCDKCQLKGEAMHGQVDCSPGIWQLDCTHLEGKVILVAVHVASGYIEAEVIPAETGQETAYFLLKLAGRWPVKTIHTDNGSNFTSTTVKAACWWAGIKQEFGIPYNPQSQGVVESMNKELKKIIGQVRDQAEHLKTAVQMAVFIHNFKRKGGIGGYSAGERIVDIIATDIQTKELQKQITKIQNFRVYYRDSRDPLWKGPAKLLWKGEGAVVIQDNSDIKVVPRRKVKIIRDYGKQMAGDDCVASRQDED

By IC50 is commonly meant the concentration that inhibits the measured activity by half. Read a high IC50 as a need for much substance. Turning to `CC1=NN(c2ccccc2)C(=O)C1/N=N/c1ccc(S(=O)(=O)Nc2nnc(C)s2)cc1` (stereo not given), the IC50 was found to be 77 µM in assay [1] and 134 µM in assay [2].
The matching figures for `NNS(=O)(=O)c1ccc(OCC(=O)O)cc1`: 8.8 µM and 8.2 µM.
The matching figures for `CC(=O)C1(/N=N/c2ccc(S(=O)(=O)Nc3onc(C)c3C)cc2)CCOC1=O` (stereo not given): 143 µM and 193 µM.
The matching figures for `CC(=O)Nc1cc(S(=O)(=O)O)cc2cc(S(=O)(=O)O)cc(O)c12`: 0.29 µM and 0.47 µM.
With `Cc1cc(NS(=O)(=O)c2ccc(N/N=C3/C(=N)C(C)C(=O)C(C)C3=O)cc2)nc(C)n1` (stereo not given), the IC50 in assay [1] and in assay [2] was > 200 µM in each case.
As for `Cc1nnc(NS(=O)(=O)c2ccc(N/N=C3/C(=N)C(C)C(=O)C(C)C3=O)cc2)s1` (stereo not given), the IC50 in assay [1] and in assay [2] was > 200 µM in each case.
Consider `Cc1nnc(NS(=O)(=O)c2ccc(C3SC(=S)NC3=O)cc2)s1` (stereo not given), for which the IC50 in assay [1] is 19 µM; in assay [2], 24 µM.
Consider `O=C(Nc1ccc(S(=O)(=O)Nc2ccc(/N=N/c3ccccc3)cc2)cc1)C(Sc1[nH]cnc2ncnc1-2)Sc1[nH]cnc2ncnc1-2`, for which the IC50 in assay [1] came to 112 µM; in assay [2] it was 140 µM.
The matching figures for `CC(=O)C1(/N=N/c2ccc(S(=O)(=O)Nc3ccccn3)cc2)CCOC1=O` (stereo not given): > 200 µM and > 200 µM.
The matching figures for `CC(=O)N(C(C)=O)c1nc2c(c(=O)n(C)c(=O)n2C)n1C`: > 200 µM and > 200 µM.
With `Cc1cc(C)nc(NS(=O)(=O)c2ccc(NC(=O)c3cccn4c(=O)c5ccccc5nc34)cc2)n1`, the IC50 in assay [1] was found to be 44.6 µM; in assay [2] it was 75.5 µM.
On to `Cc1ccnc(NS(=O)(=O)c2ccc(N/N=C3/C(=N)C(C)C(=O)C(C)C3=O)cc2)n1` (stereo not given), for which the IC50 in assay [1] and in assay [2] was > 200 µM each time.
As to `CCOC(=O)C(CCCCn1cnc2ncnc(Cl)c21)(NC(C)=O)C(=O)OCC`, the 50% inhibitory concentration (IC50) in assay [1] and in assay [2] was > 200 µM in each case.
For the compound `CC(=O)Nc1ccc(S(=O)(=O)/N=N/NCC(=O)O)cc1`, the half-inhibitory concentration (IC50) in assay [1] and in assay [2] was > 200 µM each time.
With `CCOC(=O)C(/C=N/c1ccc(S(N)(=O)=O)cc1)C(=O)OCC`, the IC50 in assay [1] and in assay [2] was > 200 µM in each case.
On to `CC1=NN(c2ccccc2)C(=O)C1/N=N/c1ccc(S(=O)(=O)Nc2ccccn2)cc1` (stereo not given), for which the 50% inhibitory concentration (IC50) in assay [1] and in assay [2] was > 200 µM throughout.
In the case of `COc1cc(NS(=O)(=O)c2ccc(C(C)=O)cc2)nc(OC)n1`, the IC50 in assay [1] and in assay [2] was > 200 µM throughout.
With `CC1=NN(c2ccccc2)C(=O)C1/N=N/c1ccc(S(N)(=O)=O)cc1` (stereo not given), the half-inhibitory concentration (IC50) in assay [1] and in assay [2] was > 200 µM each time.
Regarding `Cc1ccnc(NS(=O)(=O)c2ccc(NC(=O)Nc3ccc(Cl)c(C(F)(F)F)c3)cc2)n1`, the IC50 is 80 µM in assay [1] and 122 µM in assay [2].
The matching figures for `CCOC(=O)COc1ccc(S(=O)(=O)c2ccc(OCC(=O)OCC)cc2)cc1`: > 200 µM and > 200 µM.
Turning to `CS(=O)(=O)c1nc2ccc(N3C(=O)c4ccccc4C3=O)cc2s1`, the IC50 in assay [1] and in assay [2] was > 200 µM throughout.
In the case of `Cc1cc(C)nc(NS(=O)(=O)c2ccc(CN3C(=O)c4ccccc4C3=O)cc2)n1`, the IC50 in assay [1] and in assay [2] was > 200 µM in each case.
For the compound `CCOC(=O)N(CCCCCCNC(c1ccccc1)S(=O)(=O)O)c1ccccc1` (stereo not given), the half-inhibitory concentration (IC50) in assay [1] and in assay [2] was > 200 µM throughout.
For the compound `Cc1cc(C)nc(NS(=O)(=O)c2ccc(NC(=O)c3cccc4c(N)c5ccccc5nc34)cc2)n1`, the IC50 was 13.7 µM in assay [1] and 48.3 µM in assay [2].
On to `CCC(=O)CCC1=Nc2nnc(CCCCc3nnc4n3C(=O)C(CCC(=O)CC)=N4)n2C1=O`, for which the half-inhibitory concentration (IC50) in assay [1] and in assay [2] was > 200 µM each time.
Regarding `Cc1csc(NS(=O)(=O)c2ccc(N/N=C3/C(=N)C(C)C(=O)C(C)C3=O)cc2)c1C` (stereo not given), the half-maximal inhibitory concentration (IC50) in assay [1] and in assay [2] was > 200 µM throughout.
Turning to `NS(=O)(=O)c1ccc(NC(=O)/C=C\C(=O)O)cc1`, the half-inhibitory concentration (IC50) in assay [1] and in assay [2] was > 200 µM each time.
On to `O=C(O)c1ccccc1/C=N/NC1=CS(=O)(=O)C=C1`, for which the half-inhibitory concentration (IC50) in assay [1] and in assay [2] was > 200 µM each time.
With `CC1=NN(c2ccccc2)C(=O)C1/N=N/c1ccc(S(=O)(=O)Nc2cc(C)nc(C)n2)cc1` (stereo not given), the IC50 in assay [1] and in assay [2] was > 200 µM each time.
On to `CC1=NN(c2ccccc2)C(=O)C1/N=N/c1ccc(S(=O)(=O)Nc2ncccn2)cc1` (stereo not given), for which the IC50 in assay [1] and in assay [2] was > 200 µM in each case.
Take `CC1=NN(c2ccccc2)C(=O)C1/N=N/c1ccc(S(=O)(=O)Nc2nccc(C)n2)cc1` (stereo not given): the values for the IC50 in assay [1] and in assay [2] were 23.6 µM and 49 µM, respectively.
The matching figures for `Nc1nc(N)c(/N=N/c2ccc(S(=O)(=O)NC(=O)c3ccccc3)cc2)c(O)n1`: 96 µM and 120 µM.
The matching figures for `CC(=O)C1(/N=N/c2ccc(S(=O)(=O)Nc3nnc(C)s3)cc2)CCOC1=O` (stereo not given): 178 µM and 244 µM.
For `CC(=O)Nc1cccc2cc(S(=O)(=O)O)ccc12`, the IC50 is 14.3 µM in assay [1] and 27.9 µM in assay [2].
As to `CC(=O)Nc1cc2cc(NS(=O)(=O)c3cc(C(F)(F)F)cc(C(F)(F)F)c3)ccc2oc1=O`, the IC50 in assay [1] and in assay [2] was > 200 µM each time.
For `CC1C(=N)/C(=N/Nc2ccc(S(=O)(=O)Nc3ccccn3)cc2)C(=O)C(C)C1=O` (stereo not given), the 50% inhibitory concentration (IC50) in assay [1] and in assay [2] was > 200 µM in each case.
In the case of `CC1C(=N)/C(=N/Nc2ccc(S(=O)(=O)Nc3nccs3)cc2)C(=O)C(C)C1=O` (stereo not given), the half-inhibitory concentration (IC50) in assay [1] and in assay [2] was > 200 µM in each case.
`NS(=O)(=O)c1ccc(NC=C2C(=O)N(c3ccccc3)N(c3ccccc3)C2=O)cc1`: the IC50 in assay [1] and in assay [2] was > 200 µM in each case.
Take `NS(=O)(=O)c1ccc(NC(=O)/C=C/C(=O)O)cc1`: the IC50 in assay [1] and in assay [2] was > 200 µM each time.
With `CC1C(=N)/C(=N/Nc2ccc(S(=O)(=O)Nc3ncccn3)cc2)C(=O)C(C)C1=O` (stereo not given), the IC50 in assay [1] and in assay [2] was > 200 µM each time.
On to `O=C(Nc1ccc(S(=O)(=O)Nc2ccc(/N=N/c3ccc(S(=O)(=O)Nc4nccs4)cc3)cc2)cc1)C(N1CC1)(N1CC1)N1CC1`, for which the IC50 in assay [1] and in assay [2] was > 200 µM each time.
For the compound `O=C(CNC(=O)c1cnc2ccccc2n1)NCCCNC(=O)CNC(=O)c1cnc2ccccc2n1`, the IC50 in assay [1] and in assay [2] was > 200 µM in each case.
Take `Cc1ccccc1CN1C2=NCCN2C(=O)C2=C1CCN(S(=O)(=O)c1ccc(Cl)c(S(N)(=O)=O)c1)C2`: the half-inhibitory concentration (IC50) in assay [1] and in assay [2] was > 200 µM in each case.
As for `CC(=O)Nc1ccc(N)c2cc(S(=O)(=O)O)ccc12`, the half-maximal inhibitory concentration (IC50) came to 2.7 µM in assay [1] and 3.4 µM in assay [2].
The matching figures for `C=C1CC(c2ccc(S(=O)(=O)N3CCOCC3)cc2)OC1=O` (stereo not given): > 200 µM and > 200 µM.
As for `COC(=O)c1noc2c1CSC1=C2CS(=O)(=O)c2ccccc21`, the IC50 in assay [1] and in assay [2] was > 200 µM throughout.
As for `CC(=O)NCCSS(=O)(=O)CCCCCS(=O)(=O)SCCNC(C)=O`, the IC50 in assay [1] and in assay [2] was > 200 µM throughout.
Regarding `CC(=O)OCC1OC(n2ccc(-n3cncn3)nc2=O)CC1N=[N+]=[N-]` (stereo not given), the half-inhibitory concentration (IC50) in assay [1] and in assay [2] was > 200 µM in each case.
As to `NC1=NNC(=O)C1/N=N/c1ccc(S(=O)(=O)Nc2nccs2)cc1` (stereo not given), the 50% inhibitory concentration (IC50) in assay [1] is 61 µM; in assay [2], 71 µM.
The matching figures for `CCOC(=S)SC1OC(COC(C)=O)C(OC(C)=O)C(OC(C)=O)C1OC(C)=O` (stereo not given): > 200 µM and > 200 µM.
Consider `CCOC(=O)C(Cc1cn(S(=O)(=O)c2ccccc2)c2ccccc12)(NC(C)=O)C(=O)OCC`, for which the 50% inhibitory concentration (IC50) in assay [1] and in assay [2] was > 200 µM each time.
As for `CCC(=O)C(C)C(=O)C(=O)NCCNC(=O)C(=O)C(C)C(=O)CC` (stereo not given), the IC50 in assay [1] and in assay [2] was > 200 µM each time.
As for `CC1=NN(c2ccccc2)C(=O)C1/N=N/c1ccc(S(=O)(=O)Nc2scc(C)c2C)cc1` (stereo not given), the half-inhibitory concentration (IC50) in assay [3] worked out at 97 µM; in assay [4], 124 µM.
For the compound `CC(=O)C1(/N=N/c2ccc(S(=O)(=O)Nc3nccc(C)n3)cc2)CCOC1=O` (stereo not given), the results for the IC50 in assay [1] and in assay [2] were 65 µM and 70 µM, respectively.
The matching figures for `CS(=O)(=O)Nc1ccc2oc(=O)c3ccccc3c2c1`: > 200 µM and > 200 µM.
The matching figures for `NS(=O)(=O)c1ccc(NN=C2C(=O)N(c3ccccc3)N(c3ccccc3)C2=O)cc1`: > 200 µM and > 200 µM.
On to `O=C1NC(=S)SC1c1ccc(S(=O)(=O)Nc2ncccn2)cc1` (stereo not given), for which the IC50 worked out at 14 µM in assay [1] and 28.6 µM in assay [2].
Regarding `NS(=O)(=O)c1ccc(/N=N/C2Sc3nc4ccccc4n3C2=O)cc1` (stereo not given), the IC50 in assay [1] was found to be 126 µM; in assay [2], 209 µM.
Turning to `Nc1ncnc2c1ncn2[C@@H]1O[C@H](CO[C@@H]2[C@@H](O)[C@H](OS(=O)(=O)O)[C@H](O)[C@@H](O[C@H]3O[C@@H](CO)[C@@H](O)[C@H](O)[C@@H]3N)[C@]2(O)C(=O)[C@@H](N)CO)[C@@H](O)[C@H]1O`, the half-inhibitory concentration (IC50) in assay [1] and in assay [2] was > 200 µM throughout.
In the case of `O=C(O)[C@H]1OC(n2cc([N+](=O)[O-])c(=O)[nH]c2=O)[C@H](O)[C@@H]1O` (stereo not given in full), the half-maximal inhibitory concentration (IC50) in assay [1] and in assay [2] was > 200 µM in each case.
